# Source: PubChem BioAssay (NCI)
#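 Dose response: 5 concentrations. Exposure: 48 h. Format: 96-well plates. Endpoint: linear interpolation; highest concentration if not reached. The concentration for full growth arrest is given as TGI.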
# Tests used:
# Test in all cases: DTP human tumour cell line panel, 48 h
# [1] = tested on: M14 melanoma
# [2] = tested on: UACC-62 melanoma
# [3] = tested on: CAKI-1 renal
# [4] = tested on: OVCAR-3 ovarian
# [5] = tested on: MALME-3M melanoma
# [6] = tested on: HT29 colon
# [7] = tested on: SF-539 CNS
# [8] = tested on: UO-31 renal
# [9] = tested on: IGROV1 ovarian
# [10] = tested on: HOP-18 NSCLC
# [11] = tested on: RXF 393 renal
# [12] = tested on: SW-620 colon
# [13] = tested on: HCC-2998 colon
# [14] = tested on: SK-OV-3 ovarian
# [15] = tested on: A549 NSCLC
# [16] = tested on: M19-MEL melanoma
# [17] = tested on: XF 498 CNS
# [18] = tested on: RPMI-8226 leukemia
# [19] = tested on: HOP-92 NSCLC
# [20] = tested on: SK-MEL-28 melanoma
# [21] = tested on: OVCAR-8 ovarian
# [22] = tested on: K-562 leukemia
# [23] = tested on: HL-60(TB) leukemia
# [24] = tested on: CCRF-CEM leukemia
# [25] = tested on: DMS 114 small cell lung
# [26] = tested on: U251 CNS
# [27] = tested on: TK-10 renal
# [28] = tested on: DMS 273 small cell lung
# [29] = tested on: COLO 205 colon
# [30] = tested on: SNB-78 CNS
# [31] = tested on: HCT-116 colon
# [32] = tested on: KM12 colon
# [33] = tested on: HOP-62 NSCLC
# [34] = tested on: NCI-H226 lung
# [35] = tested on: A498 renal
# [36] = tested on: SN12C renal
# [37] = tested on: NCI-H460 lung
# [38] = tested on: 786-0 renal
# [39] = tested on: OVCAR-5 ovarian
# [40] = tested on: KM20L2 colon
# [41] = tested on: OVCAR-4 ovarian
# [42] = tested on: SNB-75 CNS
# [43] = tested on: SNB-19 CNS
# [44] = tested on: LOX IMVI melanoma
# [45] = tested on: SR leukemia
# [46] = tested on: DLD-1 colon
# [47] = tested on: SF-268 CNS
# [48] = tested on: LXFL 529 NSCLC
# [49] = tested on: HCT-15 colon
# [50] = tested on: ACHN renal
# [51] = tested on: UACC-257 melanoma
# [52] = tested on: SK-MEL-5 melanoma
# [53] = tested on: MOLT-4 leukemia
# [54] = tested on: NCI-H23 lung
# [55] = tested on: SF-295 CNS
# [56] = tested on: NCI-H522 lung
# [57] = tested on: EKVX NSCLC
# [58] = tested on: SK-MEL-2 melanoma
smiles,measurement,setting,value
Cc1ccc(/C=C/C(=O)CCN(C)C)cc1,TGI,[1],38.7 µM
same,TGI,[2],28.2 µM
same,TGI,[3],26.8 µM
same,TGI,[4],39.4 µM
same,TGI,[5],39.7 µM
same,TGI,[6],33.4 µM
same,TGI,[7],31.3 µM
same,TGI,[8],33.8 µM
same,TGI,[9],37.1 µM
same,TGI,[10],38.4 µM
same,TGI,[11],41.6 µM
same,TGI,[12],30.2 µM
same,TGI,[13],32.1 µM
same,TGI,[14],> 100 µM
same,TGI,[15],38.4 µM
same,TGI,[16],38.7 µM
same,TGI,[17],28.5 µM
same,TGI,[18],> 100 µM
same,TGI,[19],38.1 µM
same,TGI,[20],33.8 µM
same,TGI,[21],62.2 µM
same,TGI,[22],> 100 µM
same,TGI,[23],47 µM
same,TGI,[24],72.4 µM
same,TGI,[25],32.5 µM
same,TGI,[26],30 µM
same,TGI,[27],30.2 µM
same,TGI,[28],25.6 µM
same,TGI,[29],29.4 µM
same,TGI,[30],87 µM
same,TGI,[31],33.1 µM
same,TGI,[32],14 µM
same,TGI,[33],> 100 µM
same,TGI,[34],49.4 µM
same,TGI,[35],> 100 µM
same,TGI,[36],32.1 µM
same,TGI,[37],65.6 µM
same,TGI,[38],32.6 µM
same,TGI,[39],> 100 µM
same,TGI,[40],37.2 µM
same,TGI,[41],30.4 µM
same,TGI,[42],35.1 µM
same,TGI,[43],> 100 µM
same,TGI,[44],31.6 µM
same,TGI,[45],62.7 µM
same,TGI,[46],33.7 µM
same,TGI,[47],47.5 µM
same,TGI,[48],34.2 µM
same,TGI,[49],38.2 µM
same,TGI,[50],32.9 µM
same,TGI,[51],31 µM
same,TGI,[52],34.4 µM
same,TGI,[53],51.7 µM
same,TGI,[54],79 µM
same,TGI,[55],> 100 µM
COC(=O)C(CCCN1C(=O)c2ccccc2C1=O)C(=O)OC,TGI,[1],> 100 µM
same,TGI,[2],> 100 µM
same,TGI,[3],> 100 µM
same,TGI,[4],> 100 µM
same,TGI,[5],> 100 µM
same,TGI,[6],> 100 µM
same,TGI,[7],> 100 µM
same,TGI,[8],> 100 µM
same,TGI,[9],> 100 µM
same,TGI,[10],> 100 µM
same,TGI,[11],> 100 µM
same,TGI,[12],> 100 µM
same,TGI,[13],> 100 µM
same,TGI,[14],> 100 µM
same,TGI,[15],> 100 µM
same,TGI,[16],> 100 µM
same,TGI,[17],> 100 µM
same,TGI,[19],> 100 µM
same,TGI,[20],> 100 µM
same,TGI,[21],> 100 µM
same,TGI,[56],> 100 µM
same,TGI,[22],> 100 µM
same,TGI,[23],> 100 µM
same,TGI,[57],> 100 µM
same,TGI,[24],> 100 µM
same,TGI,[25],> 100 µM
same,TGI,[26],> 100 µM
same,TGI,[27],> 100 µM
same,TGI,[28],> 100 µM
same,TGI,[29],> 100 µM
same,TGI,[30],> 100 µM
same,TGI,[31],> 100 µM
same,TGI,[32],> 100 µM
same,TGI,[33],> 100 µM
same,TGI,[34],> 100 µM
same,TGI,[35],> 100 µM
same,TGI,[36],> 100 µM
same,TGI,[37],> 100 µM
same,TGI,[38],> 100 µM
same,TGI,[58],> 100 µM
same,TGI,[39],> 100 µM
same,TGI,[40],> 100 µM
same,TGI,[41],> 100 µM
same,TGI,[42],> 100 µM
same,TGI,[43],> 100 µM
same,TGI,[44],> 100 µM
same,TGI,[46],> 100 µM
same,TGI,[47],> 100 µM
same,TGI,[48],> 100 µM
same,TGI,[49],> 100 µM
same,TGI,[50],> 100 µM
same,TGI,[51],> 100 µM
same,TGI,[52],> 100 µM
same,TGI,[53],> 100 µM
same,TGI,[54],> 100 µM
same,TGI,[55],> 100 µM
S=c1sc2c(n1-c1ccccc1)NC=NC2S (centres undefined),TGI,[1],> 100 µM
same,TGI,[2],> 100 µM
same,TGI,[3],> 100 µM
same,TGI,[4],> 100 µM
same,TGI,[5],> 100 µM
same,TGI,[6],> 100 µM
same,TGI,[7],> 100 µM
same,TGI,[8],> 100 µM
same,TGI,[9],> 100 µM
same,TGI,[10],92.1 µM
same,TGI,[11],> 100 µM
same,TGI,[12],> 100 µM
same,TGI,[13],> 100 µM
same,TGI,[14],> 100 µM
same,TGI,[15],> 100 µM
same,TGI,[16],> 100 µM
same,TGI,[17],> 100 µM
same,TGI,[18],> 100 µM
same,TGI,[19],71.1 µM
same,TGI,[20],> 100 µM
same,TGI,[21],> 100 µM
same,TGI,[56],> 100 µM
same,TGI,[22],> 100 µM
same,TGI,[23],> 100 µM
same,TGI,[57],> 100 µM
same,TGI,[24],> 100 µM
same,TGI,[25],> 100 µM
same,TGI,[26],> 100 µM
same,TGI,[27],> 100 µM
same,TGI,[28],> 100 µM
same,TGI,[29],> 100 µM
same,TGI,[30],> 100 µM
same,TGI,[31],> 100 µM
same,TGI,[32],> 100 µM
same,TGI,[33],> 100 µM
same,TGI,[34],> 100 µM
same,TGI,[36],> 100 µM
same,TGI,[37],> 100 µM
same,TGI,[38],> 100 µM
same,TGI,[58],> 100 µM
same,TGI,[39],> 100 µM
same,TGI,[40],> 100 µM
same,TGI,[41],> 100 µM
same,TGI,[42],> 100 µM
same,TGI,[43],> 100 µM
same,TGI,[44],> 100 µM
same,TGI,[45],> 100 µM
same,TGI,[46],> 100 µM
same,TGI,[47],> 100 µM
same,TGI,[48],> 100 µM
same,TGI,[49],> 100 µM
same,TGI,[50],> 100 µM
same,TGI,[51],> 100 µM
same,TGI,[52],> 100 µM
same,TGI,[53],> 100 µM
same,TGI,[54],> 100 µM
same,TGI,[55],> 100 µM
CC(=O)OCCOCNC(=S)N/N=C(\C)c1cnccn1,TGI,[1],54.7 µM
same,TGI,[2],36.5 µM
same,TGI,[4],> 100 µM
same,TGI,[5],> 100 µM
same,TGI,[6],> 100 µM
same,TGI,[7],> 100 µM
same,TGI,[8],> 100 µM
same,TGI,[9],> 100 µM
same,TGI,[10],97.5 µM
same,TGI,[11],> 100 µM
same,TGI,[12],> 100 µM
same,TGI,[13],> 100 µM
same,TGI,[14],> 100 µM
same,TGI,[15],> 100 µM
same,TGI,[16],46.3 µM
same,TGI,[17],> 100 µM
same,TGI,[18],> 100 µM
same,TGI,[20],> 100 µM
same,TGI,[21],> 100 µM
same,TGI,[56],97 µM
same,TGI,[22],> 100 µM
same,TGI,[23],76.1 µM
same,TGI,[57],> 100 µM
same,TGI,[24],> 100 µM
same,TGI,[25],51.4 µM
same,TGI,[26],> 100 µM
same,TGI,[27],> 100 µM
same,TGI,[28],67 µM
same,TGI,[29],> 100 µM
same,TGI,[30],> 100 µM
same,TGI,[31],> 100 µM
same,TGI,[32],> 100 µM
same,TGI,[33],> 100 µM
same,TGI,[34],79.7 µM
same,TGI,[35],> 100 µM
same,TGI,[36],> 100 µM
same,TGI,[37],> 100 µM
same,TGI,[38],> 100 µM
same,TGI,[58],> 100 µM
same,TGI,[39],40.5 µM
same,TGI,[40],81.3 µM
same,TGI,[41],> 100 µM
same,TGI,[42],> 100 µM
same,TGI,[43],> 100 µM
same,TGI,[44],> 100 µM
same,TGI,[45],> 100 µM
same,TGI,[46],> 100 µM
same,TGI,[47],> 100 µM
same,TGI,[48],> 100 µM
same,TGI,[49],> 100 µM
same,TGI,[50],86.3 µM
same,TGI,[51],> 100 µM
same,TGI,[52],32.7 µM
same,TGI,[53],> 100 µM
same,TGI,[54],> 100 µM
same,TGI,[55],> 100 µM
